Measured values taken from PubChem BioAssay (NCI).
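Method: 48-hour compound exposure of cells in 96-well plates, five concentrations, linear interpolation of endpoints. Here, GI50 denotes the concentration required for 50% inhibition of growth. The concentration for full growth arrest is given as TGI.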

How the values were obtained:
Experiment in all cases: NCI-60 cell line screen, 48 h
[1] = tested on: OVCAR-4 ovarian
[2] = tested on: KM12 colon
[3] = tested on: OVCAR-5 ovarian
[4] = tested on: NCI/ADR-RES ovarian
[5] = tested on: RXF 393 renal
[6] = tested on: HCT-116 colon
[7] = tested on: M14 melanoma
[8] = tested on: MOLT-4 leukemia
[9] = tested on: RPMI-8226 leukemia
[10] = tested on: OVCAR-8 ovarian
[11] = tested on: SNB-19 CNS
[12] = tested on: ACHN renal
[13] = tested on: SK-OV-3 ovarian
[14] = tested on: MDA-MB-435
[15] = tested on: SR leukemia
[16] = tested on: IGROV1 ovarian
[17] = tested on: UACC-257 melanoma
[18] = tested on: MCF7 breast
[19] = tested on: NCI-H522 lung
[20] = tested on: TK-10 renal
[21] = tested on: 786-0 renal
[22] = tested on: SNB-75 CNS
[23] = tested on: HOP-62 NSCLC
[24] = tested on: SF-295 CNS
[25] = tested on: K-562 leukemia
[26] = tested on: MDA-MB-231 breast
[27] = tested on: HCC-2998 colon
[28] = tested on: BT-549 breast
[29] = tested on: OVCAR-3 ovarian

COC(=O)N1c2ccc3c(nc(Cc4ccccc4)n3[C@H]3CCC[C@H](C(=O)O)C3)c2CC[C@@H]1C
GI50 [1]: 6.84 µM
TGI [1]: > 100 µM
GI50 [2]: 16.4 µM
TGI [2]: > 100 µM
GI50 [3]: 30.9 µM
TGI [3]: > 100 µM
GI50 [4]: 65.2 µM
TGI [4]: > 100 µM
GI50 [5]: 12.2 µM
TGI [5]: 91.1 µM
GI50 [6]: 17.6 µM
TGI [6]: > 100 µM
GI50 [7]: 5.86 µM
TGI [7]: > 100 µM
GI50 [8]: 14.3 µM
TGI [8]: > 100 µM
GI50 [9]: 3.84 µM
TGI [9]: 80.9 µM
GI50 [10]: 28.2 µM
TGI [10]: > 100 µM
GI50 [11]: 12.6 µM
TGI [11]: > 100 µM
GI50 [12]: 17.2 µM
TGI [12]: > 100 µM
GI50 [13]: 16.9 µM
TGI [13]: > 100 µM
GI50 [14]: 8.59 µM
TGI [14]: > 100 µM
GI50 [15]: 13.8 µM
TGI [15]: > 100 µM
GI50 [16]: 20.8 µM
TGI [16]: > 100 µM
GI50 [17]: 14.6 µM
TGI [17]: > 100 µM
GI50 [18]: 115 nM
TGI [18]: > 100 µM
GI50 [19]: 11.3 µM
TGI [19]: > 100 µM
GI50 [20]: 5.7 µM
TGI [20]: > 100 µM
GI50 [21]: 5.67 µM
TGI [21]: > 100 µM
GI50 [22]: 431 nM
TGI [22]: > 100 µM
GI50 [23]: 11.3 µM
TGI [23]: > 100 µM
GI50 [24]: 11.7 µM
TGI [24]: > 100 µM
GI50 [25]: 5.03 µM
TGI [25]: > 100 µM
GI50 [26]: 15.8 µM
TGI [26]: > 100 µM
GI50 [27]: 8.36 µM
TGI [27]: 27.1 µM
GI50 [28]: 48.5 µM
TGI [28]: > 100 µM
GI50 [29]: 13.3 µM
